From patent US20250002507A1, “7,8-DIHYDRO-5H-1,6-NAPHTHYRIDINE DERIVATIVES AS POSITIVE ALLOSTERIC MODULATORS OF THE MUSCARINIC ACETYLCHOLINE RECEPTOR M4 FOR TREATING NEUROLOGICAL AND PSYCHIATRIC DISORDERS” (Vanderbilt University, priority 2021, published 2025)

Columns and labels:
[1] = target: T1, Human M4 (Homo sapiens, UniProt P08173); assay: mAChR M4 cell-based functional assay (calcium flux, potentiation of EC20 acetylcholine response), hM4-Gqi5 CHO-K1 cells; settings: Table 4; for Emax at 30 µM: CHO-K1, Human M4, % ACh maximum at 30 μM, read-out: Emax (% ACh maximum at 30 μM); for EC50: potentiation of EC20 acetylcholine response, calcium flux, CHO-K1 cells, read-out: Human M4 EC50
T1 construct: expressed in transfected cells
T1 sequence (P08173 1-479): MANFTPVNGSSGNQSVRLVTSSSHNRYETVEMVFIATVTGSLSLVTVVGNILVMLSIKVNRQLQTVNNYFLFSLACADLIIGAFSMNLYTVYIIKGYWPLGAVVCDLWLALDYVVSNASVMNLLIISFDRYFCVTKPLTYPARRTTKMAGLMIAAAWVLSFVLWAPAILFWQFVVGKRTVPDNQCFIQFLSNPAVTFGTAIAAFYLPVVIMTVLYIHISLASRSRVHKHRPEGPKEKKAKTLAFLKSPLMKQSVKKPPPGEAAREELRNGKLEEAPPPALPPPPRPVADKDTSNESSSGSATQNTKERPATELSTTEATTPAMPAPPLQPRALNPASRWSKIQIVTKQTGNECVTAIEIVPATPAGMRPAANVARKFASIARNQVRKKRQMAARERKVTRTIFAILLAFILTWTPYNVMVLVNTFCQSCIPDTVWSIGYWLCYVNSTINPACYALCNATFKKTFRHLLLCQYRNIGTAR
Method in brief: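 Positive allosteric modulation was scored as a concentration-dependent rise in the response to an EC20 dose of acetylcholine, added 144 s after the compound. Human M4-Gqi5 CHO-K1 cells carried Fluo-4 dye, and compounds ran as 11-point, 3-fold dilution series. EC50 and Emax came from four-parameter logistic fits of the FDSS fluorescence-ratio traces.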

[2] = tested on: patients; settings: patients treated with AChE inhibitor; cited from earlier work
[3] = tested on: Alzheimer's disease patients; settings: Bodick et al. 1997; cited from earlier work

FC(F)(F)c1cnc2c(c1)CN(c1nn3cnnc3c3c1CCCC3)CC2 [Compound 345, 6-(3-(trifluoromethyl)-7,8-dihydro-1,6-naphthyridin-6(5H)-yl)-7,8,9,10-tetrahydro-[1,2,4]triazolo[3,4-a]phthalazine]
Emax at 30 µM [1]: 63% | EC50 [1]: 1460 nM

Cc1c(C2CC2)c(N2CCc3ncc(C(F)(F)F)cc3C2)nn2cnnc12 [Compound 346, 6-(7-Cyclopropyl-8-methyl-[1,2,4]triazolo[4,3-b]pyridazin-6-yl)-3-(trifluoromethyl)-5,6,7,8-tetrahydro-1,6-naphthyridine]
Emax at 30 µM [1]: 70% | EC50 [1]: 2110 nM

Cc1ccc(-c2cnc3c(c2)CN(c2nn4cnnc4c(C)c2C2CC2)CC3)cn1 [Compound 347, 6-(7-cyclopropyl-8-methyl-[1,2,4]triazolo[4,3-b]pyridazin-6-yl)-3-(6-methylpyridin-3-yl)-5,6,7,8-tetrahydro-1,6-naphthyridine]
Emax at 30 µM [1]: 61% | EC50 [1]: 788 nM

Cc1c(C2CC2)c(N2CCc3ncc(N4CCO[C@H](C)C4)cc3C2)nn2cnnc12 [Compound 348, (R)-4-(6-(7-cyclopropyl-8-methyl-[1,2,4]triazolo[4,3-b]pyridazin-6-yl)-5,6,7,8-tetrahydro-1,6-naphthyridin-3-yl)-2-methylmorpholine]
Emax at 30 µM [1]: 66% | EC50 [1]: 1850 nM

COCc1c(N2CCc3ncc(C(F)(F)F)cc3C2)nn2cnnc2c1C [Compound 349, 6-(7-(Methoxymethyl)-8-methyl-[1,2,4]triazolo[4,3-b]pyridazin-6-yl)-3-(trifluoromethyl)-5,6,7,8-tetrahydro-1,6-naphthyridine]
Emax at 30 µM [1]: 106% | EC50 [1]: 93 nM

COCc1c(C)c(N2CCc3ncc(C(F)(F)F)cc3C2)nn2cnnc12 [Compound 350, 6-(8-(Methoxymethyl)-7-methyl-[1,2,4]triazolo[4,3-b]pyridazin-6-yl)-3-(trifluoromethyl)-5,6,7,8-tetrahydro-1,6-naphthyridine]
Emax at 30 µM [1]: 77% | EC50 [1]: 5110 nM

Cc1c(N2CCc3ncc(C(F)(F)F)cc3C2)nn2cnnc2c1C(F)(F)F [Compound 351, 6-(7-Methyl-8-(trifluoromethyl)-[1,2,4]triazolo[4,3-b]pyridazin-6-yl)-3-(trifluoromethyl)-5,6,7,8-tetrahydro-1,6-naphthyridine]
Emax at 30 µM [1]: 77% | EC50 [1]: 1400 nM

[2H]C1([2H])Cc2ncc(Nc3cc(C)ncc3F)cc2C([2H])([2H])N1c1nn2cnnc2cc1C [Compound 352, N-(5-fluoro-2-methylpyridin-4-yl)-6-(7-methyl-[1,2,4]triazolo[4,3-b]pyridazin-6-yl)-5,6,7,8-tetrahydro-1,6-naphthyridin-5,5,7,7-d4-3-amine]
Emax at 30 µM [1]: 98% | EC50 [1]: 67 nM

[2H]C1([2H])Cc2ncc(Nc3cc(C)ncc3F)cc2C([2H])([2H])N1c1nn2cnnc2c(C)c1C [Compound 353, 6-(7,8-dimethyl-[1,2,4]triazolo[4,3-b]pyridazin-6-yl)-N-(5-fluoro-2-methylpyridin-4-yl)-5,6,7,8-tetrahydro-1,6-naphthyridin-5,5,7,7-d4-3-amine]
Emax at 30 µM [1]: 99% | EC50 [1]: 22 nM

[2H]C1([2H])Cc2ncc(Nc3cccnc3C)cc2C([2H])([2H])N1c1nn2cnnc2cc1C [Compound 354, 6-(7-methyl-[1,2,4]triazolo[4,3-b]pyridazin-6-yl)-N-(2-methylpyridin-3-yl)-5,6,7,8-tetrahydro-1,6-naphthyridin-5,5,7,7-d4-3-amine]
Emax at 30 µM [1]: 87% | EC50 [1]: 355 nM

[2H]C1([2H])Cc2ncc(Nc3ccncc3F)cc2C([2H])([2H])N1c1nn2cnnc2cc1C [Compound 355, N-(3-Fluoropyridin-4-yl)-6-(7-methyl-1,2,4[triazolo 4,3-b]pyridazin-6-yl)-5,6,7,8-tetrahydro-1,6-naphthyridin-5,5,7,7-d4-3-amine]
Emax at 30 µM [1]: 94% | EC50 [1]: 14 nM

[2H]C1([2H])Cc2ncc(Nc3ccncc3C)cc2C([2H])([2H])N1c1nn2cnnc2cc1C [Compound 356, 6-(7-methyl-[1,2,4]triazolo[4,3-b]pyridazin-6-yl)-N-(3-methylpyridin-4-yl)-5,6,7,8-tetrahydro-1,6-naphthyridin-5,5,7,7-d4-3-amine]
Emax at 30 µM [1]: 77% | EC50 [1]: 686 nM

[2H]C1([2H])Cc2ncc(Nc3ccncc3C)cc2C([2H])([2H])N1c1nn2cnnc2c(C)c1C [Compound 357, 6-(7,8-dimethyl-[1,2,4]triazolo[4,3-b]pyridazin-6-yl)-N-(3-methylpyridin-4-yl)-5,6,7,8-tetrahydro-1,6-naphthyridin-5,5,7,7-d4-3-amine]
Emax at 30 µM [1]: 74% | EC50 [1]: 168 nM

[2H]C1([2H])Cc2ncc(Nc3ccncc3F)cc2C([2H])([2H])N1c1nn2cnnc2c(C)c1C [Compound 358, 6-(7,8-dimethyl-[1,2,4]triazolo[4,3-b]pyridazin-6-yl)-N-(3-fluoropyridin-4-yl)-5,6,7,8-tetrahydro-1,6-naphthyridin-5,5,7,7-d4-3-amine]
Emax at 30 µM [1]: 96% | EC50 [1]: 3 nM

[2H]C1([2H])Cc2ncc(Nc3ccccc3F)cc2C([2H])([2H])N1c1nn2cnnc2cc1C [Compound 359, N-(2-fluorophenyl)-6-(7-methyl-[1,2,4]triazolo[4,3-b]pyridazin-6-yl)-5,6,7,8-tetrahydro-1,6-naphthyridin-5,5,7,7-d4-3-amine]
Emax at 30 µM [1]: 116% | EC50 [1]: 7 nM

Cc1cc2nncn2nc1N1CCc2ncc(Nc3ccncc3F)cc2C1 [Compound 360, N-(3-fluoropyridin-4-yl)-6-(7-methyl-[1,2,4]triazolo[4,3-b]pyridazin-6-yl)-5,6,7,8-tetrahydro-1,6-naphthyridin-3-amine]
Emax at 30 µM [1]: 100% | EC50 [1]: 5 nM

Cc1c(N2CCc3ncc(Nc4ccncc4F)cc3C2)nn2cnnc2c1C [Compound 361, 6-(7,8-dimethyl-[1,2,4]triazolo[4,3-b]pyridazin-6-yl)-N-(3-fluoropyridin-4-yl)-5,6,7,8-tetrahydro-1,6-naphthyridin-3-amine]
Emax at 30 µM [1]: 100% | EC50 [1]: 2 nM

Cc1cc(Nc2cnc3c(c2)CN(c2nn4cnnc4cc2C)CC3)c(F)cn1 [Compound 362, N-(5-fluoro-2-methylpyridin-4-yl)-6-(7-methyl-[1,2,4]triazolo[4,3-b]pyridazin-6-yl)-5,6,7,8-tetrahydro-1,6-naphthyridin-3-amine]
Emax at 30 µM [1]: 97% | EC50 [1]: 51 nM

Cc1cc(Nc2cnc3c(c2)CN(c2nn4cnnc4c(C)c2C)CC3)c(F)cn1 [Compound 363, 6-(7,8-dimethyl-[1,2,4]triazolo[4,3-b]pyridazin-6-yl)-N-(5-fluoro-2-methylpyridin-4-yl)-5,6,7,8-tetrahydro-1,6-naphthyridin-3-amine]
Emax at 30 µM [1]: 93% | EC50 [1]: 26 nM

Cc1cnccc1Nc1cnc2c(c1)CN(c1nn3cnnc3cc1C)CC2 [Compound 364, 6-(7-methyl-[1,2,4]triazolo[4,3-b]pyridazin-6-yl)-N-(3-methylpyridin-4-yl)-5,6,7,8-tetrahydro-1,6-naphthyridin-3-amine]
Emax at 30 µM [1]: 83% | EC50 [1]: 2500 nM

Cc1cnccc1Nc1cnc2c(c1)CN(c1nn3cnnc3c(C)c1C)CC2 [Compound 365, 6-(7,8-dimethyl-[1,2,4]triazolo[4,3-b]pyridazin-6-yl)-N-(3-methylpyridin-4-yl)-5,6,7,8-tetrahydro-1,6-naphthyridin-3-amine]
Emax at 30 µM [1]: 63% | EC50 [1]: 112 nM

Nc1c2c(nc3ccccc13)CCCC2 [tacrine]
elevated liver transaminases, share of patients [2]: about 30%

CCCCCCOc1nsnc1C1=CCCN(C)C1 [xanomeline]
effect on psychotic behavioral symptoms [3]: reduce psychotic behavioral symptoms
